According to patent US20240261417A1, “SOS1 DEGRADING AGENT AND PREPARATION METHOD THEREFOR AND APPLICATION THEREOF” (SHANGHAI LEADINGTAC PHARMACEUTICAL CO. LTD., priority 2021, published 2024):

What was measured:
[1] = tested on: KRAS G12C mutant human non-small cell lung cancer cells NCI-H358; experiment: 3D cell proliferation inhibition assay, NCI-H358; type: cell-based; settings: 7 days, CTG
Procedure: (§1) Inhibition of 3D cell proliferation by the compounds was investigated on KRAS G12C mutant human non-small cell lung cancer cells NCI-H358 (ATCC or Stem Cell Bank, Chinese Academy of Sciences), KRAS G12D mutant human metastatic pancreatic adenocarcinoma cells AsPC-1 (ATCC), KRAS G12V mutant human lung adenocarcinoma cells NCI-H441 (ATCC), and KRAS G13D mutant human colorectal adenocarcinoma epithelial cells DLD-1 (ATCC). The specific procedures were as follows:
(§2) 200 nL of compound solution diluted in a gradient was added to corresponding microwells of a 384-well low-adsorption microwell plate (Corning, 3657) using an Echo sonic pipetting system (Labcyte, Echo 550), so that the final concentration of the test compound in the reaction system was in a range of 20000 nM-0.008 nM. Then 40 μL of cells at a certain density were added to the corresponding microplate. In addition to test wells for the test compounds, both a DMSO control well and a medium control well were set, with the DMSO control well containing DMSO and cells and the medium well containing only medium. After sample loading, the plate cover was applied, and the 384-well low-adsorption microplate was incubated in an incubator at 37° C. with 5% carbon dioxide for 7 days. After 7 days, the microplate was taken out, and 40 μL of CTG reagent (Promega, G9683) was added to each well. The plate was incubated at room temperature for 30 min and read on a microplate reader EnVision using the chemiluminescence program. The inhibition rates of the compounds at each concentration were calculated by the formula for the percentage inhibition of cell proliferation: inhibition rate %=(mean value of DMSO control group−single concentration reading value of compound)/(mean value of DMSO control group−mean value of medium control group)×100, and then nonlinear curve fitting was performed by GraphPad Prism 8 in the logarithmic concentration-inhibition rate to obtain the IC50 values of the compounds.

[2] = tested on: KRAS G12V mutant human lung adenocarcinoma cells NCI-H441; experiment: 3D cell proliferation inhibition assay, NCI-H441; type: cell-based; settings: 7 days, CTG
Procedure: as §1, §2

[3] = tested on: KRAS G13D mutant human colorectal adenocarcinoma epithelial cells DLD-1; experiment: 3D cell proliferation inhibition assay, DLD-1; type: cell-based; settings: 7 days, CTG
Procedure: as §1, §2

[4] = tested on: KRAS G12D mutant human metastatic pancreatic adenocarcinoma cells AsPC-1; experiment: 3D cell proliferation inhibition assay, AsPC-1; type: cell-based; settings: 7 days, CTG
Procedure: as §1, §2

KRAS-G12C/SOS1 = target: T1, KRAS-G12C/SOS1 (Homo sapiens, UniProt Q07889); experiment: KRAS-G12C/SOS1 binding assay (HTRF); settings: inhibition of KRAS-G12C/SOS1 binding
T1 construct: purchased Cisbio 63ADKOOOCB16PEG
T1 sequence (Q07889 1-1333): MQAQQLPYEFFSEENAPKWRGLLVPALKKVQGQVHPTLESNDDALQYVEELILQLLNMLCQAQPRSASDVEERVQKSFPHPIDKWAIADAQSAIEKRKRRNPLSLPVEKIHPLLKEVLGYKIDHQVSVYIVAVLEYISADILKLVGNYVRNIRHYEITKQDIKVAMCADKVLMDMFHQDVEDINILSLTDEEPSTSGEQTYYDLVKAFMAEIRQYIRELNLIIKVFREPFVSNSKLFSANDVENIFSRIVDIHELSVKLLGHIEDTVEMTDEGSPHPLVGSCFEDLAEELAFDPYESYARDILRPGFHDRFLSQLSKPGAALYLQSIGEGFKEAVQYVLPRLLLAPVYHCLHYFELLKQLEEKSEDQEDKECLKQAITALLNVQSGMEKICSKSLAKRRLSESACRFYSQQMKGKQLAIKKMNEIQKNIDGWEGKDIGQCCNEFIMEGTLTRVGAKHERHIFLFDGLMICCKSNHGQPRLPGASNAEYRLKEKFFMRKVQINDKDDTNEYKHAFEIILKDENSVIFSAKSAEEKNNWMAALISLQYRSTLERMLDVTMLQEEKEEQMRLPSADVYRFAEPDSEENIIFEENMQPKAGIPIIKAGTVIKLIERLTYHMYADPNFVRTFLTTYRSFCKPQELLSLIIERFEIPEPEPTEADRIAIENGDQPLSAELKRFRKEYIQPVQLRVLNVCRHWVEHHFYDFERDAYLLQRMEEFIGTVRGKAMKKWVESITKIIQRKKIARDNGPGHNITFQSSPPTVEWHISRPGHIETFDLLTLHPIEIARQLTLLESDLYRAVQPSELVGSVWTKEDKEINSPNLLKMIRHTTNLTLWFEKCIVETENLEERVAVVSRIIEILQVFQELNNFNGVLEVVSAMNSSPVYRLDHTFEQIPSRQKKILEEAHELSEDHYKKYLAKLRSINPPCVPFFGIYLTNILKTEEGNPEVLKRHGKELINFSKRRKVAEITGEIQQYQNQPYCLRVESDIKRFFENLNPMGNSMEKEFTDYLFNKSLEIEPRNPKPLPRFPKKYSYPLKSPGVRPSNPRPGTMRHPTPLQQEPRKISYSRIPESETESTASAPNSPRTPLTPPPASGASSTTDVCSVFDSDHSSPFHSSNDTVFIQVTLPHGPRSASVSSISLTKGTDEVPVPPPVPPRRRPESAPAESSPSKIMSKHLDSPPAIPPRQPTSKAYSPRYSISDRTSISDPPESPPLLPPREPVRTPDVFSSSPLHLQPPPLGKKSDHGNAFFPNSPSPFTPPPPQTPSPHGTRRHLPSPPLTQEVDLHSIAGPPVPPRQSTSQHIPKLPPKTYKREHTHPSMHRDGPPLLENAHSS
Summary of the method: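 HTRF competition assay with Tag1-SOS1 and Tag2-KRAS-G12C (10 μM GTP). Compounds at 10000 nM-0.04 nM final (0.5% DMSO), incubated 15 min at 25° C, then anti-tag Tb3+/XL665 antibodies added for 3 h on ice. The 665/620 nm ratio was compared with control and IC50 derived by nonlinear fit.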

SOS1 protein = target: T2, SOS1 protein (Homo sapiens, UniProt Q07889); experiment: SOS1 degradation assay (Western blot), NCI-H358 cells; type: cell-based; parameters: The degradation of SOS1 by the compounds was investigated on KRAS G12C mutant human non-small cell lung cancer cells NCI-H358; host or cells: NCI-H358 (human cancer cell lines); settings: SOS1 degradation, NCI-H358 cells, 24 h, Western blot; for DC50: read-out: NCI-H358 (G12C) DC50; for Dmax: read-out: NCI-H358 (G12C) Dmax
T2 sequence (Q07889 1-1333): T1 sequence (Q07889 1-1333)
Summary of the method: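 SOS1 degradation was assessed by densitometry of Western blots, relative to untreated controls, after 24 h compound exposure (0.03–3000 nM final, 37 °C, 5% CO2) of cells seeded at 5×10^5/well. Log concentration–response fitting gave DC50 and Dmax.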

| SMILES | IC50 [1] | IC50 [2] | IC50 [3] | IC50 [4] | IC50 (KRAS-G12C/SOS1) | DC50 (SOS1 protein) | Dmax (SOS1 protein) |
| --- | --- | --- | --- | --- | --- | --- | --- |
| COc1cc2nc(C)nc(N[C@H](C)c3cc(N)cc(C(F)(F)F)c3)c2cc1C1CCC(C(=O)N2CCN(CC3CCC4(CC3)CCN(C(=O)c3ccc(OC)c(N5CCC(=O)NC5=O)c3)CC4)CC2)CC1 (stereo partly drawn) [Example 20, 1-(5-(9-((4-((1R,4R)-4-(4-(((R)-1-(3-amino-5-(trifluoromethyl)phenyl)ethyl)amino)-7-methoxy-2-methylquinazolin-6-yl)cyclohexane-1-carbonyl)piperazin-1-yl)methyl)-3-azaspiro[5.5]undecane-3-carbonyl)-2-methoxyphenyl)dihydropyrimidine-2,4(1H,3H)-dione] | ≤ 15 nM | ≤ 15 nM | 15 to 30 nM | 50 to 100 nM |  |  |  |
| COc1cc2nc(C)nc(N[C@H](C)c3cc(-c4c(Cl)cccc4CN(C)C)cs3)c2cc1[C@H]1CC[C@H](C(=O)N2CCN(CCCOC3CCN(C(=O)c4ccc(Cl)c(N5CCC(=O)NC5=O)c4)CC3)CC2)CC1 [Example 68, 1-(2-chloro-5-(4-(3-(4-((1R,4R)-4-(4-(((R)-1-(4-(2-chloro-6-((dimethylamino)methyl)phenyl)thien-2-yl)ethyl)amino)-7-methoxy-2-methylquinazolin-6-yl)cyclohexane-1-carbonyl)piperazin-1-yl)propoxy)piperidine-1-carbonyl)phenyl)dihydropyrimidine-2,4(1H,3H)-dione] |  |  |  |  | ≤ 15 nM | < 50 nM | 50 to 80% |
| CNCc1cccc(Cl)c1-c1csc([C@@H](C)Nc2nc(C)nc3cc(OC)c([C@H]4CC[C@H](C(=O)N5CCC(CCOCC6CCN(C(=O)c7ccc(Cl)c(N8CCC(=O)NC8=O)c7)CC6)CC5)CC4)cc23)c1 [Example 69, 1-(2-chloro-5-(4-((2-(1-((1R,4R)-4-(4-(((R)-1-(4-(2-chloro-6-((methylamino)methyl)phenyl)thien-2-yl)ethyl)amino)-7-methoxy-2-methylquinazolin-6-yl)cyclohexane-1-carbonyl)piperidin-4-yl)ethoxy)methyl)piperidine-1-carbonyl)phenyl)dihydropyrimidine-2,4(1H,3H)-dione] |  |  |  |  | ≤ 15 nM | < 50 nM | 50 to 80% |
| COc1cc2nc(C)nc(N[C@H](C)c3cc(-c4c(Cl)cccc4CN(C)C)cs3)c2cc1[C@H]1CC[C@H](C(=O)N2CCC(COCCC3CCN(C(=O)c4ccc(Cl)c(N5CCC(=O)NC5=O)c4)CC3)CC2)CC1 [Example 70, 1-(2-chloro-5-(4-(2-((1-((1R,4R)-4-(4-(((R)-1-(4-(2-chloro-6-((dimethylamino)methyl)phenyl)thien-2-yl)ethyl)amino)-7-methoxy-2-methylquinazolin-6-yl)cyclohexane-1-carbonyl)piperidin-4-yl)methoxy)ethyl)piperidine-1-carbonyl)phenyl)dihydropyrimidine-2,4(1H,3H)-dione] |  |  |  |  | ≤ 15 nM | < 50 nM | 80 to 100% |
| COc1cc2nc(C)nc(N[C@H](C)c3cc(-c4c(Cl)cccc4CN(C)C)cs3)c2cc1[C@H]1CC[C@H](C(=O)N2CCN(CCCCC3CCN(C(=O)c4ccc(Cl)c(N5CCC(=O)NC5=O)c4)CC3)CC2)CC1 [Example 71, 1-(2-chloro-5-(4-(4-(4-((1R,4R)-4-(4-(((R)-1-(4-(2-chloro-6-((dimethylamino)methyl)phenyl)thien-2-yl)ethyl)amino)-7-methoxy-2-methylquinazolin-6-yl)cyclohexane-1-carbonyl)piperazin-1-yl)butyl)piperidine-1-carbonyl)phenyl)dihydropyrimidine-2,4(1H,3H)-dione] |  |  |  |  | ≤ 15 nM | < 50 nM | 80 to 100% |
| Cc1nc(N[C@H](C)c2cc(N)cc(C(F)(F)F)c2)c2cc([C@H]3CC[C@H](C(=O)N4CCN(CC5CCC6(CC5)CCN(C(=O)c5ccc(Cl)c(N7CCC(=O)NC7=O)c5)CC6)CC4)CC3)c(C)cc2n1 [Example 72, 1-(5-(9-((4-((1R,4R)-4-(4-(((R)-1-(3-amino-5-(trifluoromethyl)phenyl)ethyl)amino)-2,7-dimethylquinazolin-6-yl)cyclohexane-1-carbonyl)piperazin-1-yl)methyl)-3-azaspiro[5.5]undecane-3-carbonyl)-2-chlorophenyl)dihydropyrimidine-2,4(1H,3H)-dione] |  |  |  |  | ≤ 15 nM | < 50 nM | 50 to 80% |
| [2H]C([2H])(OCC1CCN(C(=O)[C@H]2CC[C@H](c3cc4c(N[C@H](C)c5cc(N)cc(C(F)(F)F)c5)nc(C)nc4cc3OC)CC2)CC1)C1CCN(C(=O)c2ccc(Cl)c(N3CCC(=O)NC3=O)c2)CC1 [Example 75, 1-(5-(4-(((1-((1R,4R)-4-(4-(((R)-1-(3-amino-5-(trifluoromethyl)phenyl)ethyl)amino)-7-methoxy-2-methylquinazolin-6-yl)cyclohexane-1-carbonyl)piperidin-4-yl)methoxy)methyl-d2)piperidine-1-carbonyl)-2-chlorophenyl)dihydropyrimidine-2,4(1H,3H)-dione] |  |  |  |  | ≤ 15 nM | < 50 nM | 50 to 80% |
| COc1cc2nc(C)nc(N[C@H](C)c3cc(-c4c(Cl)cccc4CN(C)C)cs3)c2cc1[C@H]1CC[C@H](C(=O)N2CCC(CCCC3CCN(C(=O)c4ccc(Cl)c(N5CCC(=O)NC5=O)c4)CC3)CC2)CC1 [Example 79, 1-(2-chloro-5-(4-(3-(1-((1R,4R)-4-(4-(((R)-1-(4-(2-chloro-6-((dimethylamino)methyl)phenyl)thien-2-yl)ethyl)amino)-7-methoxy-2-methylquinazolin-6-yl)cyclohexane-1-carbonyl)piperidin-4-yl)propyl)piperidine-1-carbonyl)phenyl)dihydropyrimidine-2,4(1H,3H)-dione] |  |  |  |  | ≤ 15 nM | 50 to 100 nM | 50 to 80% |
